Data taken from the supplement of paper PMC13380429.

Columns and labels:
[1] = test system: A549-ACE2 infected with SARS-CoV-2; assay: cell count relative to DMSO; higher = less toxic; conditions: 24 h
Caco-2 [2] = assay: cell viability relative to DMSO; higher = less toxic; conditions: 72 h
Calu-3 [3] = assay: as above; conditions: 72 h
HepG2 [4] = assay: as above; conditions: 72 h
U2OS [5] = assay: as above; conditions: 72 h
Vero E6 [6] = assay: as above; conditions: 72 h
[7] = test system: A549-ACE2 infected with SARS-CoV-2; assay: SARS-CoV-2 infection rate relative to DMSO; higher = more infection; conditions: 24 h
A549-ACE2 [8] = assay: drug-induced phospholipidosis relative to tamoxifen; higher = more phospholipidosis
[9] = test system: A549-ACE2 infected with SARS-CoV-2; assay: morphology score (similarity to uninfected cells); higher = more like uninfected cells; conditions: 24 h
Caco-2 [10] = assay: relative viability EC50 (midpoint between 100% and the lowest measured viability); higher = less toxic; conditions: 72 h
Calu-3 [11] = assay: as above; conditions: 72 h
U2OS [12] = assay: as above; conditions: 72 h
Vero E6 [13] = assay: as above; conditions: 72 h
Caco-2 [14] = assay: drug sensitivity score (DSS) for viability; higher = more toxic; extreme values may be limits of the assay; conditions: 72 h
Calu-3 [15] = assay: as above; conditions: 72 h
HepG2 [16] = assay: as above; conditions: 72 h
U2OS [17] = assay: as above; conditions: 72 h
Vero E6 [18] = assay: as above; conditions: 72 h
HepG2 [19] = assay: relative viability EC50 (midpoint between 100% and the lowest measured viability); higher = less toxic; conditions: 72 h
A549-ACE2 [20] = assay: phospholipidosis EC50; higher = less potent phospholipidosis inducer

NC(=O)c1noc([C@H](CCCC2CCCCC2)CC(=O)NO)n1
Conditions	SARS-CoV-2 infection rate, [7] [%]	cell count, [1] [%]	cell viability, Caco-2 [2] [%]	cell viability, Calu-3 [3] [%]	cell viability, HepG2 [4] [%]	cell viability, U2OS [5] [%]	cell viability, Vero E6 [6] [%]	morphology score, [9]
1 nM	–	–	97.2	106	102	96.4	95.2	–
10 nM	–	–	93	102	108	101	90.9	–
100 nM	–	–	96.9	93.8	109	101	93.1	–
0.3 µM	102	102	–	–	–	–	–	-0.06
1000 nM	–	–	88	110	89.6	97.4	91.4	–
3 µM	98	100	–	–	–	–	–	0
10 µM	89	102	–	–	–	–	–	0.38
10000 nM	–	–	79.6	98.7	74.8	86.7	97	–
30 µM	95	101	–	–	–	–	–	0.25

drug-induced phospholipidosis [%], A549-ACE2 [8]
Conditions	0.3 µM	0.833333 µM	3.33333 µM	6.66667 µM	10 µM	30 µM
24 h	4.23	6.27	14.7	16.7	18.4	23.6
48 h	4.52	5.1	16.8	23.1	24.9	32.6
72 h	5.18	1.64	8.76	19.5	21	–

Conditions	drug sensitivity score	relative viability EC50 [µM]
Caco-2 [10]	–	> 10
Caco-2 [14]	1.2	–
Calu-3 [11]	–	> 10
Calu-3 [15]	0	–
HepG2 [16]	2.2	–
U2OS [12]	–	> 10
U2OS [17]	0.3	–
Vero E6 [13]	–	> 10
Vero E6 [18]	0	–

OC1=c2ccccc2=C(NC2CCCCC2)/C1=C\c1ccccc1
Conditions	SARS-CoV-2 infection rate, [7] [%]	cell count, [1] [%]	cell viability, Caco-2 [2] [%]	cell viability, Calu-3 [3] [%]	cell viability, HepG2 [4] [%]	cell viability, U2OS [5] [%]	cell viability, Vero E6 [6] [%]	morphology score, [9]
1 nM	–	–	107	89.1	95.6	98.9	93.6	–
10 nM	–	–	92	82.2	104	99.4	95.2	–
0.1 µM	96	99	–	–	–	–	–	-0.03
100 nM	–	–	96	90.1	101	108	96.9	–
0.3 µM	99	101	–	–	–	–	–	0.22
1 µM	103	99	–	–	–	–	–	-0.06
1000 nM	–	–	88.3	99.5	93	83	91.7	–
3 µM	93	73	–	–	–	–	–	0.11
10000 nM	–	–	32.8	35.8	1.2	0.1	10.5	–

drug-induced phospholipidosis [%], A549-ACE2 [8]
Conditions	0.3 µM	0.833333 µM	3.33333 µM	30 µM
24 h	2.77	-0.77	1.63	12.9
48 h	0.98	-0.44	6.41	–
72 h	1.89	-2.33	6.19	–

Conditions	drug sensitivity score	relative viability EC50 [µM]
Caco-2 [10]	–	1.86
Caco-2 [14]	5.6	–
Calu-3 [11]	–	3.1
Calu-3 [15]	3.6	–
HepG2 [16]	6.5	–
HepG2 [19]	–	2.59
U2OS [12]	–	1.88
U2OS [17]	8.3	–
Vero E6 [13]	–	2.4
Vero E6 [18]	6.3	–

COc1ccc2nc3c(c(N)c2c1)CCCC3 [7-methoxytacrine]
Conditions	SARS-CoV-2 infection rate, [7] [%]	cell count, [1] [%]	cell viability, Caco-2 [2] [%]	cell viability, Calu-3 [3] [%]	cell viability, HepG2 [4] [%]	cell viability, U2OS [5] [%]	cell viability, Vero E6 [6] [%]	morphology score, [9]
1 nM	–	–	96	93	100	103	102	–
10 nM	–	–	98.2	102	91.4	102	99.8	–
100 nM	–	–	96.2	91.1	92.5	98.5	95.6	–
0.3 µM	102	103	–	–	–	–	–	-0.02
1000 nM	–	–	93.8	97.7	79.3	100	95.4	–
3 µM	81	109	–	–	–	–	–	0.53
10 µM	34	115	–	–	–	–	–	0.82
10000 nM	–	–	92.2	95.5	83.5	95.3	98.9	–
30 µM	17	111	–	–	–	–	–	0.76

drug-induced phospholipidosis [%], A549-ACE2 [8]
Conditions	0.3 µM	0.833333 µM	3.33333 µM	6.66667 µM	10 µM	30 µM
24 h	0.14	-0.76	0.16	7.44	14.2	83.8
48 h	2.14	-1.42	1.92	4.91	9.37	110
72 h	5.21	-1.72	1.16	5.48	11.9	129

Conditions	drug sensitivity score	relative viability EC50 [µM]
Caco-2 [10]	–	> 10
Caco-2 [14]	0	–
Calu-3 [11]	–	> 10
Calu-3 [15]	0	–
HepG2 [16]	2.6	–
HepG2 [19]	–	> 10
U2OS [12]	–	> 10
U2OS [17]	0	–
Vero E6 [13]	–	> 10
Vero E6 [18]	0	–

NC1(c2ccc(-c3nc4ccn5c(=O)[nH]nc5c4cc3-c3ccccc3)cc2)CCC1 [MK-2206]
Conditions	SARS-CoV-2 infection rate [%]	cell count [%]	cell viability [%]	morphology score	phospholipidosis EC50 [µM]
A549-ACE2 [20], 24 h	–	–	–	–	3.24
A549-ACE2 [20], 48 h	–	–	–	–	3.44
Caco-2 [2], 1 nM	–	–	102	–	–
Caco-2 [2], 10 nM	–	–	95.3	–	–
Caco-2 [2], 100 nM	–	–	87.1	–	–
Caco-2 [2], 1000 nM	–	–	75	–	–
Caco-2 [2], 10000 nM	–	–	66.2	–	–
Calu-3 [3], 1 nM	–	–	104	–	–
Calu-3 [3], 10 nM	–	–	100	–	–
Calu-3 [3], 100 nM	–	–	84.1	–	–
Calu-3 [3], 1000 nM	–	–	63	–	–
Calu-3 [3], 10000 nM	–	–	38	–	–
HepG2 [4], 1 nM	–	–	95.6	–	–
HepG2 [4], 10 nM	–	–	93.7	–	–
HepG2 [4], 100 nM	–	–	84.8	–	–
HepG2 [4], 1000 nM	–	–	66.1	–	–
HepG2 [4], 10000 nM	–	–	59	–	–
U2OS [5], 1 nM	–	–	104	–	–
U2OS [5], 10 nM	–	–	103	–	–
U2OS [5], 100 nM	–	–	96.9	–	–
U2OS [5], 1000 nM	–	–	89	–	–
U2OS [5], 10000 nM	–	–	67.8	–	–
Vero E6 [6], 1 nM	–	–	94	–	–
Vero E6 [6], 10 nM	–	–	94.7	–	–
Vero E6 [6], 100 nM	–	–	93.4	–	–
Vero E6 [6], 1000 nM	–	–	81	–	–
Vero E6 [6], 10000 nM	–	–	63.2	–	–
[1], 0.1 µM	–	100	–	–	–
[1], 0.3 µM	–	99	–	–	–
[1], 1 µM	–	85	–	–	–
[1], 3 µM	–	103	–	–	–
[7], 0.1 µM	105	–	–	–	–
[7], 0.3 µM	101	–	–	–	–
[7], 1 µM	97	–	–	–	–
[7], 3 µM	29	–	–	–	–
[9], 0.1 µM	–	–	–	0.19	–
[9], 0.3 µM	–	–	–	0.27	–
[9], 1 µM	–	–	–	0.31	–
[9], 3 µM	–	–	–	0.79	–

drug-induced phospholipidosis [%], A549-ACE2 [8]
Conditions	0.3 µM	0.833333 µM	3.33333 µM	6.66667 µM	10 µM	30 µM
24 h	3.85	16.3	76	128	149	82.1
48 h	2.41	16.9	89	158	169	–
72 h	0.889	14.8	66.8	–	–	–

Conditions	drug sensitivity score	relative viability EC50 [µM]
Caco-2 [14]	5.4	–
Calu-3 [11]	–	0.49
Calu-3 [15]	8.7	–
HepG2 [16]	7.6	–
U2OS [17]	2.7	–
Vero E6 [18]	3.9	–
